Results: patent publication US8173593B2, “Methods and compositions for emergency contraception using endothelin receptor antagonists” (The Population Council, Inc., priority 2005, dated 2012)

Tests used:
superovulated mice [1] = test: oocyte count after antagonist injection during superovulation; type: in vivo; details: for decrease in number of oocytes: time effect
Procedure: Pharmacological blockers of the endothelin receptor system were implemented to elucidate the role of ET-2 during superovulation. JKC301 (ETRA antagonist) and BQ788 (ETB antagonist) were injected 6 hours after hCG injection and an oocyte count was tabulated. […] BQ788 treatment was further investigated and found to have a time effect. BQ788 posted a 39%, 58%, and 66% decrease in number of oocytes at 4, 6 and 8 hours, respectively, after hCG injection.
(§1) BQ788 was further tested to examine the manner in which this ETB antagonist reduced the number of oocytes. Histological sections of ovaries collected at 18 hours after hCG injection in superovulated mice that received either vehicle or BQ788 through i/p at 8 hours after hCG, were examined and found to have striking differences in the number of corpus lutea (photo not shown).

superovulated mice [2] = test: histological sections of ovaries collected 18 hours after hCG injection; type: in vivo
Procedure: as §1

endothelin-2 = test: inhibition of endothelin-2 function

## CCCC[C@@H](NC(=O)[C@@H](Cc1cn(C(=O)OC)c2ccccc12)NC(=O)[C@H](CC(C)(C)C)NC(=O)N1[C@H](C)CCC[C@@H]1C)C(=O)O [BQ788, N-cis-2,6-dimethylpiperidinocarbonyl-L-gamma-methylleucyl-D-1-methoxycarbonyltryptophanyl-D-norleucine]
Superovulated mice [1]; antagonist injected 6 hours after hCG injection, comparison of JKC301 and BQ788
  decrease in the number of oocytes: 65%
Superovulated mice [1]; BQ788 given 4 hours after hCG injection
  decrease in number of oocytes: 39%
Superovulated mice [1]; BQ788 given 6 hours after hCG injection
  decrease in number of oocytes: 58%
Superovulated mice [1]; BQ788 given 8 hours after hCG injection
  decrease in number of oocytes: 66%
Superovulated mice [2]; given at 8 hours, a stage very close to the ovulation
  inhibition of ovulation: inhibition of ovulation by blocking follicle rupture in the ovary
Superovulated mice [2]; i/p at 8 hours after hCG, ovaries collected at 18 hours after hCG, versus vehicle
  number of corpus lutea and unruptured follicles in ovary sections: few corpus lutea and numerous unruptured follicles
endothelin-2
  function of endothelin-2: inhibits function of endothelin-2
